According to paper PMC7017153, “Assembly of a G-Quadruplex Repair Complex by the FANCJ DNA Helicase and the REV1 Polymerase” (Genes, 2019):

Experiments:
[1] = system: (TTAGGG)4 human telomeric G4 DNA; test: Fluorescence spectroscopy, FANCJ AKKQ binding to (TTAGGG)4; settings: tryptophan fluorescence quenching, peptide 5 µM, excitation 280 nm, 300-450 nm; Buffer H (20 mM HEPES pH 7.5, 150 mM KCl, 5 mM TCEP, 5% (v/v) glycerol), 25 °C; 1:1 model; average and 95% confidence interval, n = 3
Experimental: (§1) Equilibrium binding experiments were performed on a Cary Eclipse Fluorescence Spectrophotometer (Agilent Technologies, Santa Clara, CA, USA). Samples were maintained at 25 °C with a PCB 1500 water peltier system (Agilent). FANCJ peptide (5 µM) was placed in a microcuvette. Fluorescence spectra were collected from 300 nm to 450 nm (λexcitation = 280 nm) with slit widths set to 5 nm. A scan of Buffer H was used as a baseline. DNA substrate was titrated into the cuvette, and each mixture was equilibrated for 3 min prior to data collection. The extent of fluorescence quenching observed (ΔFobs) was calculated using the following equation, where F0 was the total fluorescence signal from the FANCJ peptide alone, and Fi was the total fluorescence intensity upon the ith addition of DNA:(1) ΔFobs=F0−Fi/F0
(§2) Binding isotherms were generated by plotting ΔFobs versus the total DNA concentration after correcting for sample dilution. The resulting curves were fit to a 1:1 interaction model using Scientist 3.0 software (Micromath, St. Louis, MO, USA) based on the following formulas, where A was the amplitude of fluorescence quenching and K was the equilibrium association constant. […] Fluorescence titrations were performed in triplicate. The reported values were determined from the average and 95% confidence interval of the three independent data-sets. […]

(TTAGGG)4 8oxo1 = test: Fluorescence spectroscopy, FANCJ AKKQ binding to (TTAGGG)4 8oxo1; design: species or system human; settings: tryptophan fluorescence quenching, peptide 5 µM, excitation 280 nm; Buffer H (pH 7.5, 150 mM KCl), 25 °C; 1:1 model; 8oxoG at first guanine; average and 95% confidence interval, n = 3
Experimental: as §1, §2

(TTAGGG)4 8oxo5 = test: Fluorescence spectroscopy, FANCJ AKKQ binding to (TTAGGG)4 8oxo5; design: species or system human; settings: tryptophan fluorescence quenching, peptide 5 µM, excitation 280 nm; Buffer H (pH 7.5, 150 mM KCl), 25 °C; 1:1 model; 8oxoG at fifth guanine; average and 95% confidence interval, n = 3
Experimental: as §1, §2

(GGGT)4 = test: Fluorescence spectroscopy, FANCJ AKKQ binding to (GGGT)4; settings: tryptophan fluorescence quenching, peptide 5 µM, excitation 280 nm; Buffer H (pH 7.5, 150 mM KCl), 25 °C; 1:1 model; average and 95% confidence interval, n = 3
Experimental: as §1, §2

(GGGT)4 8oxo1 = test: Fluorescence spectroscopy, FANCJ AKKQ binding to (GGGT)4 8oxo1
Experimental: as §1, §2

(GGGT)4 8oxo5 = test: Fluorescence spectroscopy, FANCJ AKKQ binding to (GGGT)4 8oxo5; settings: tryptophan fluorescence quenching, peptide 5 µM, excitation 280 nm; Buffer H (pH 7.5, 150 mM KCl), 25 °C; 1:1 model; 8oxoG at fifth guanine; average and 95% confidence interval, n = 3
Experimental: as §1, §2

bioPEG12-(TTAGGG)4 = test: Biolayer interferometry (BLI), AKKQ binding to bioPEG12-(TTAGGG)4; design: species or system human
Experimental: (§3) BLI assays were performed on a BLItz instrument (Pall Fortébio, Fremont, CA, USA). Streptavidin-coated biosensors were purchased from Pall Fortébio (Lot 1906281). Biosensors were hydrated in Buffer H for 10 min, and the baseline optical interference was recorded. A total of 150 nM of biotinylated G4 DNA or FANCJ PIP peptide was loaded onto the sensors over 2 min, after which they were washed with Buffer H. Binding reactions were initiated by placing the biosensors in analyte solutions at the indicated concentrations. After their interactions had reached an equilibrium, the sensors were returned to buffer to monitor dissociation of the complexes. Experiments were repeated in triplicate. BLI binding isotherms were generated by plotting the plateau values of the association phase versus total analyte concentration. These curves were fit to a 1:1 interaction model, as described above. The parameters reported were obtained from the average and 95% confidence interval of the three data sets.
(§4) We next validated our fluorescence spectroscopy results by biolayer interferometry (BLI). This technique measures the optical thickness of a biosensor surface, which can be used to examine the association and dissociation reactions of macromolecules. […] The optical interference pattern of the sensor alone was measured in Buffer H as an initial baseline (phase 1). […]

bioPEG12-(TTAGGG)4-8oxo1 = test: Biolayer interferometry (BLI), AKKQ binding to bioPEG12-(TTAGGG)4-8oxo1; design: species or system human; settings: 150 nM biotinylated G4 DNA loaded on streptavidin biosensor, peptide 32-0.5 µM, Buffer H (pH 7.5, 150 mM KCl), 25 °C, plateau Δλ, 1:1 model, average and 95% confidence interval, n = 3
Experimental: as §3, §4

bioPEG12-(TTAGGG)4-8oxo5 = test: Biolayer interferometry (BLI), AKKQ binding to bioPEG12-(TTAGGG)4-8oxo5; design: species or system human; settings: 150 nM biotinylated G4 DNA loaded on streptavidin biosensor, peptide 32-0.5 µM, Buffer H (pH 7.5, 150 mM KCl), 25 °C, plateau Δλ, 1:1 model, average and 95% confidence interval, n = 3
Experimental: as §3, §4

K (equilibrium association constant) [1]: 1.6 ± 0.7 × 10^6 M^−1 | K8oxo1 (equilibrium association constant) ((TTAGGG)4 8oxo1): 1.3 ± 0.4 × 10^6 M^−1 | K8oxo5 (equilibrium association constant) ((TTAGGG)4 8oxo5): 1.4 ± 0.5 × 10^6 M^−1 | K (equilibrium association constant) ((GGGT)4): 2.7 ± 0.4 × 10^5 M^−1 | K8oxo1 (equilibrium association constant) ((GGGT)4 8oxo1; tryptophan fluorescence quenching, peptide 5 µM, excitation 280 nm, Buffer H (pH 7.5, 150 mM KCl), 25 °C, 1:1 model, 8oxoG at first guanine, average and 95% confidence interval, n = 3): 7.7 ± 0.7 × 10^5 M^−1 | K8oxo5 (equilibrium association constant) ((GGGT)4 8oxo5): 4.4 ± 0.6 × 10^5 M^−1 | K (equilibrium constant) (bioPEG12-(TTAGGG)4; BLI, 150 nM biotinylated G4 DNA loaded on streptavidin biosensor, peptide 64-0.5 µM, Buffer H (pH 7.5, 150 mM KCl), 25 °C, plateau Δλ, 1:1 model, average and 95% confidence interval, n = 3): 9.4 ± 1.1 × 10^4 M^−1 | K8oxo1 (equilibrium constant) (bioPEG12-(TTAGGG)4-8oxo1): 2.3 ± 0.8 × 10^5 M^−1 | K8oxo5 (equilibrium constant) (bioPEG12-(TTAGGG)4-8oxo5): 1.8 ± 0.2 × 10^5 M^−1
Sequence: SPEKTTLAAKLSAKKQASIW [FANCJ AKKQ]
Increase of equilibrium constant by oxidative damage ((GGGT)4 8oxo1; (GGGT)4 8oxo1 and 8oxo5 relative to (GGGT)4, fluorescence): 1.5-3 fold | BLI binding constants compared to the fluorescence measurements (bioPEG12-(TTAGGG)4; human telomeric G4, native, 8oxo1 and 8oxo5): about one order of magnitude weaker compared to the fluorescence measurements
